Common to all, as to assay type: cell-based
For assay [1], the system named is A549 (KRAS G12S mutant type). Briefly: In vitro growth inhibition (GI50), A549. The note with it: Homo sapiens; A549, KRAS Gl2S. From the text: (§1) Tumor cell line is an effective cell model for studying the inhibition of tumor cell growth or proliferation in vitro. In the present invention, a representative tumor cell line was selected to determine the cell growth inhibition activity of the present compound. All cell lines used were from ATCC, DSMZ, and the Cell Bank of the Chinese Academy of Sciences. Cell culture conditions and methods were in accordance with the requirements of each cell line. Cells were subcultured in vitro for no more than 3 passages each time, and as required, single-clone purification and identification of cell lines could be carried out.
(§2) The cell culture media used were RPMI1640 (Gibco), MEM (Gibco), McCOY'S5A (Gibco), and IMDM (Gibco). The complete medium was prepared by supplement with 5˜20% fetal calf serum (Gibco), 1% double-antibiotics (10000 units/mL penicillin and 10000 units/mL), 2 mM glutamine or 1 mM sodium pyruvate, respectively.
Human large cell lung cancer cell NCI-H460 (KRAS […] mutant type, ATCC), human non-small cell lung cancer cell line H1299 (NRAS Q61K mutant type, ATCC), human melanoma cell line A375 (BRAF V600E mutant type, Shanghai Cell Bank of Chinese Academy of Sciences), human colon cancer cell line HCT116 (KRAS G13D mutant type, Shanghai Cell Bank, Chinese Academy of Sciences) were cultured in a complete medium of 1×RPMI1640 (10% FBS), respectively. Human non-small cell lung cancer cells A549 (KRAS G12S mutant type, Shanghai Cell Bank, Chinese Academy of Sciences) were cultured in a complete medium of 1× Ham's supplemented with 10% FBS, 1% double antibody, and 2 mM glutamine.
(§3) Adherent cells were digested with 0.25% pancreatin-EDTA (Gibco). The suspension cells were collected by centrifugation. The supernatant was discarded and the cell pellet was resuspended and counted. Different cell concentrations (5˜10×10^4 cells/mL) were prepared according to the growth cycle of each cell line and then seeded on a 96-well plate (Corning), 100 μL/well. The cells were incubated overnight at 37° C., 5% CO2. The compounds were added to the cells on the second day with 2 wells in parallel. The final concentration of organic solvent shall not exceed 1%. The cells were continually incubated for 3 to 5 days, and then subjected to MTT assay.
(§4) The compound of the present invention and the control compound were dissolved in DMSO (Sigma) respectively, with the purity of more than 98%. The compound was stored in a concentration of 10 mM at −20° C. and diluted to 2- or 10-fold series prior to use.
(§5) Dojindo CCK8 reagent kit was used as MTT assay. THERMO […] FC meter was used as microplate reader.
(§6) For adherent cells, culture medium was removed and immediately replaced with the fresh prepared medium which contains 10% CCK8 reagent (100 μL/well). For the suspension cells, CCK8 was directly added to 10% of the final concentration. The cells were continually incubated for 1˜4 h. When a dark yellow color could be observed in the solvent control wells, the absorbance value at OD450 nm was measured and the cell growth rate was calculated according to the following formula: Cell Growth Rate (%)=100*(T−T0)/(C−T0) T=optical density of drug treatment cell well—optical density of blank control well; T0=optical density of cell well before drug treatment—optical density of blank control well; C=optical density of cell well of solvent control group—optical density of blank control well. The concentration value of 50% inhibition of cell growth (GI50) was calculated according to the drug concentration and cell growth rate curve. The experiment was independently repeated 1˜3 times, and subject to biological statistical analysis. 4. Experimental Results
Tumor cell growth inhibition test was performed by selecting representative compounds (compounds 4, 11, 12, 16, 27, 68, 71, 77, 79, 89 and 116 of the present invention). The initial concentration of the compound was 5,000 nM, then it was serially diluted by 2-fold or 10-fold to 0.01 nM. […]

The test system of assay [2] is A431 (EGFR WT, amplification and high expression). Briefly: In vitro growth inhibition (GI50), A431. The note with it: Homo sapiens, A-431.
Description: as §1, §2
Human epidermal cancer cell line A431 (EGFR WT, amplification and high expression, from Shanghai Cell Bank of Chinese Academy of Sciences and ATCC), human lung cancer cell line NCI-H292 (EGFR WT, purchased from Shanghai Cell Bank of Chinese Academy of Sciences), NSCLC cell lines PC-9 and HCC827 (EGFR exon19 E746-A750 deletion, two cell lines are sensitive to the first-generation EGFR PTK inhibitor), NSCLC cell line NCI-H1975 (EGFR L858R/T790M and the first-generation EGFR inhibitor resistance, ATCC) were cultured with 1×RPMI1640 complete medium (supplement with 10% FBS), respectively.
as §3, §4, §5, §6
Tumor cell growth inhibition test was performed by selecting representative compounds (compounds 4, 11, 12, 16, 27, 68, 71, 77, 79, 89 and 116 of the present invention). The initial concentration of the compound was 5,000 nM, then it was serially diluted by 2-fold or 10-fold to 0.01 nM. The GI50 value of each test compound was calculated according to the GI50 assay and calculation method. […]

The test system of assay [3] is NCI-H2170 (HER2/ErbB2 amp). Kind of assay: In vitro growth inhibition (GI50), NCI-H2170. The note with it: Homo sapiens.
Description: as §1, §2
(§7) Human gastric cancer cell line NCI-N87 (HER2/ErbB2 amp, ATCC), human breast cancer cell line HCC1954 (HER2/ErbB2 amp, ATCC) and ZR-75-30 (HER2/ErbB2 amp, ATCC), human adenocarcinoma cell line AU565 (HER2/ErbB2 amp, ATCC), human lung squamous cell carcinoma cell line NCI-H2170 (HER2/ErbB2 amp, ATCC), human bronchioalveolar adenocarcinoma cell line NCI-H1781 (HER2/ErbB2 Ins G776V,C mutant type, ATCC) were cultured with a 1×RPMI1640 complete medium (10% FBS), respectively. Human lung adenocarcinoma cell line Calu-3 (HER2/ErbB2 amp, ATCC) was cultured with 1×MEM, 10% FBS, 1% double antibody, 1% NEAA (Gibco), 2 mM glutamine and 1 mM sodium pyruvate. The human breast cancer cell line SK-BR-3 (HER2/ErbB2 amp, ATCC) was cultured with a McCOY'S5A complete medium (10% FBS).
as §3, §4, §5, §6
(§8) Tumor cell growth inhibition test was performed by selecting representative compounds (compounds 4, 11, 12, 16, 27, 68, 71, 77, 79, 89 and 116 of the present invention). […]

Assay [4] deals with NCI-H1781 (HER2/ErbB2 Ins G776V,C mutant type). Kind of assay: In vitro growth inhibition (GI50), NCI-H1781. To be noted: Homo sapiens.
Description: as §1, §2, §7, §3, §4, §5, §6, §8

Usually GI50 stands for the concentration giving 50% growth inhibition. A higher GI50 goes with less potent growth inhibition.

The structures appear in SMILES notation.

Turning to `CC(C)(C)c1cc(NC(=O)Nc2ccc(-n3cnc4cc(O)ccc43)cc2)no1` [Compound 4, 1-(5-tert-butyl-isoxazol-3-yl)-3-[4-(5-hydroxy-benzimidazol-1-yl)-phenyl]-urea], the GI50 is > 2.5 µM in assay [1], 1.89 µM in assay [2], > 2.5 µM in assay [3] and > 2.5 µM in assay [4].

Regarding `CC(C)(C)c1cc(NC(=O)Nc2ccc(-n3cnc4cc(OCCO)ccc43)cc2)no1` [Compound 11, 1-(5-tert-butyl-isoxazol-3-yl)-3-{4-[5-(2-hydroxy-ethoxyl)-benzimidazol-1-yl]-phenyl]-urea], the GI50 in assay [1] is > 2.5 µM; in assay [2], 1.56 µM; in assay [3], > 2.5 µM; in assay [4], > 2.5 µM.

Regarding `CC(C)(C)c1cc(NC(=O)Nc2ccc(-n3cnc4cc(OCCN5CCOCC5)ccc43)cc2)no1` [Compound 16, 1-(5-tert-butyl-isoxazol-3-yl)-3-{4-[5-(2-morpholin-4-yl-ethoxyl)-benzimidazol-1-yl]-phenyl}-urea], the concentration for 50% growth inhibition (GI50) in assay [1], in assay [2], in assay [3] and in assay [4] was > 2.5 µM in each case.

Consider `CC(C)(C)c1cc(NC(=O)Nc2ccc(-n3cnc4ccc(OCCN5CCOCC5)cc43)cc2)no1` [Compound 27, 1-(5-tert-butyl-isoxazol-3-yl)-3-{4-[6-(2morpholin-4-yl-ethoxyl)-benzimidazol-1-yl]-phenyl}-urea], for which the GI50 in assay [1], in assay [2], in assay [3] and in assay [4] was > 2.5 µM each time.

For `CC(C)(C)c1cc(NC(=O)Nc2ccc(-n3cnc4ccccc43)cc2)[nH]n1` [Compound 68, 1-(4-benzimidazol-1-yl-phenyl)-3-(5-tert-butyl-2H-pyrazol-3-yl)-urea], the GI50 in assay [1], in assay [2], in assay [3] and in assay [4] was > 2.5 µM each time.

Consider `COc1ccc2c(c1)ncn2-c1ccc(NC(=O)Nc2cc(C(C)(C)C)n[nH]2)cc1` [Compound 71, 1-(5-tert-butyl-2H-pyrazol-3-yl)-3-[4-(5-methoxyl-benzimidazol-1-yl)-phenyl]-urea], for which the GI50 in assay [1], in assay [2], in assay [3] and in assay [4] was > 2.5 µM in each case.

For the compound `COCCOc1ccc2c(c1)ncn2-c1ccc(NC(=O)Nc2cc(C(C)(C)C)n[nH]2)cc1` [Compound 77, 1-(5-tert-butyl-2H-pyrazol-3-yl)-3-{4-[5-(2-methoxyl-ethoxyl)-benzimidazol-1-yl]-phenyl}-urea], the concentration for 50% growth inhibition (GI50) in assay [1], in assay [2], in assay [3] and in assay [4] was > 2.5 µM each time.

For `CC(C)(C)c1cc(NC(=O)Nc2ccc(-n3cnc4cc(OCCO)ccc43)cc2)[nH]n1` [Compound 79, 1-(5-tert-butyl-2H-pyrazol-3-yl)-3-{4-[5-(2-hydroxy-ethoxyl)-benzimidazol-1-yl]-phenyl]urea], the GI50 in assay [1] is > 2.5 µM; in assay [2], 2 µM; in assay [3], > 2.5 µM; in assay [4], > 2.5 µM.

On to `CC(C)(C)c1cc(NC(=O)Nc2ccc(-n3cnc4cc(OCCN5CCOCC5)ccc43)cc2)[nH]n1` [Compound 89, 1-(5-tert-butyl-2H-pyrazol-3-yl)-3-{4-[5-(2-morpholin-4-yl-ethoxyl)-benzimidazol-1-yl]-phenyl}-urea], for which the GI50 in assay [1], in assay [2], in assay [3] and in assay [4] was > 2.5 µM each time.

With `CC(C)(C)c1cc(N)n(C(=O)Nc2ccc(-n3cnc4ccccc43)cc2)n1` [Compound 116, 5-amino-3-tert-butyl-pyrazol-1-carboxylic acid (4-benzimidazol-1-yl-phenyl)-amide], the GI50 in assay [1], in assay [2], in assay [3] and in assay [4] was > 2.5 µM each time.

Values taken from patent publication US10647680B2, “Urea compound, preparation method therefor and medical use thereof” (Ancureall Pharmaceutical (Shanghai) Co., Ltd., priority 2016, dated 2020).
